Converted amounts (≈) assume the structure as drawn. The source made the active and inactive calls. The calls are words filed in the database; no cut-off is given here.
tested on: HL-60(TB); test: Growth inhibition of human HL-60(TB) cells at 10^-5 M incubated for 48 hrs by sulforhodamine B assay relative to control; format: functional; settings: not given

Structure (SMILES)	growth inhibition (GI)
Fc1ccc2nc(Cl)c(Cn3nnnc3Cc3ccccc3)cc2c1	Active

tested on: K562; test: Growth inhibition of human K562 cells at 10^-5 M incubated for 48 hrs by sulforhodamine B assay relative to control; format: functional; settings: not given

Structure (SMILES)	growth inhibition (GI)
Fc1ccc2nc(Cl)c(Cn3nnnc3Cc3ccccc3)cc2c1	Active

tested on: MOLT-4; test: Growth inhibition of human MOLT4 cells at 10^-5 M incubated for 48 hrs by sulforhodamine B assay relative to control; format: functional; settings: not given

Structure (SMILES)	growth inhibition (GI)
Fc1ccc2nc(Cl)c(Cn3nnnc3Cc3ccccc3)cc2c1	Active

tested on: SR; test: Growth inhibition of human SR cells at 10^-5 M incubated for 48 hrs by sulforhodamine B assay relative to control; format: functional; settings: not given

Structure (SMILES)	growth inhibition (GI)
Fc1ccc2nc(Cl)c(Cn3nnnc3Cc3ccccc3)cc2c1	Active

tested on: A549; test: Growth inhibition of human A549/ATCC cells at 10^-5 M incubated for 48 hrs by sulforhodamine B assay relative to control; format: functional; settings: not given

Structure (SMILES)	growth inhibition (GI)
Fc1ccc2nc(Cl)c(Cn3nnnc3Cc3ccccc3)cc2c1	Active

tested on: EKVX; test: Growth inhibition of human EKVX cells at 10^-5 M incubated for 48 hrs by sulforhodamine B assay relative to control; format: functional; settings: not given

Structure (SMILES)	growth inhibition (GI)
Fc1ccc2nc(Cl)c(Cn3nnnc3Cc3ccccc3)cc2c1	Active

tested on: NCI-H226; test: Growth inhibition of human NCI-H226 cells at 10^-5 M incubated for 48 hrs by sulforhodamine B assay relative to control; format: functional; settings: not given

Structure (SMILES)	growth inhibition (GI)
Fc1ccc2nc(Cl)c(Cn3nnnc3Cc3ccccc3)cc2c1	Active

tested on: NCI-H23; test: Growth inhibition of human NCI-H23 cells at 10^-5 M incubated for 48 hrs by sulforhodamine B assay relative to control; format: functional; settings: not given

Structure (SMILES)	growth inhibition (GI)
Fc1ccc2nc(Cl)c(Cn3nnnc3Cc3ccccc3)cc2c1	Active

tested on: COLO 205; test: Growth inhibition of human COLO205 cells at 10^-5 M incubated for 48 hrs by sulforhodamine B assay relative to control; format: functional; settings: not given

Structure (SMILES)	growth inhibition (GI)
Fc1ccc2nc(Cl)c(Cn3nnnc3Cc3ccccc3)cc2c1	Active

tested on: HCC 2998; test: Growth inhibition of human HCC2998 cells at 10^-5 M incubated for 48 hrs by sulforhodamine B assay relative to control; format: functional; settings: not given

Structure (SMILES)	growth inhibition (GI)
Fc1ccc2nc(Cl)c(Cn3nnnc3Cc3ccccc3)cc2c1	Active

tested on: HCT-15; test: Growth inhibition of human HCT15 cells at 10^-5 M incubated for 48 hrs by sulforhodamine B assay relative to control; format: functional; settings: not given

Structure (SMILES)	growth inhibition (GI)
Fc1ccc2nc(Cl)c(Cn3nnnc3Cc3ccccc3)cc2c1	Active

tested on: HT-29; test: Growth inhibition of human HT-29 cells at 10^-5 M incubated for 48 hrs by sulforhodamine B assay relative to control; format: functional; settings: not given

Structure (SMILES)	growth inhibition (GI)
Fc1ccc2nc(Cl)c(Cn3nnnc3Cc3ccccc3)cc2c1	Active

tested on: KM12; test: Growth inhibition of human KM12 cells at 10^-5 M incubated for 48 hrs by sulforhodamine B assay relative to control; format: functional; settings: not given

Structure (SMILES)	growth inhibition (GI)
Fc1ccc2nc(Cl)c(Cn3nnnc3Cc3ccccc3)cc2c1	Active

tested on: SW-620; test: Growth inhibition of human SW620 cells at 10^-5 M incubated for 48 hrs by sulforhodamine B assay relative to control; format: functional; settings: not given

Structure (SMILES)	growth inhibition (GI)
Fc1ccc2nc(Cl)c(Cn3nnnc3Cc3ccccc3)cc2c1	Active

tested on: SF-268; test: Growth inhibition of human SF268 cells at 10^-5 M incubated for 48 hrs by sulforhodamine B assay relative to control; format: functional; settings: not given

Structure (SMILES)	growth inhibition (GI)
Fc1ccc2nc(Cl)c(Cn3nnnc3Cc3ccccc3)cc2c1	Active

tested on: SF-295; test: Growth inhibition of human SF295 cells at 10^-5 M incubated for 48 hrs by sulforhodamine B assay relative to control; format: functional; settings: not given

Structure (SMILES)	growth inhibition (GI)
Fc1ccc2nc(Cl)c(Cn3nnnc3Cc3ccccc3)cc2c1	Active

tested on: SF-539; test: Growth inhibition of human SF539 cells at 10^-5 M incubated for 48 hrs by sulforhodamine B assay relative to control; format: functional; settings: not given

Structure (SMILES)	growth inhibition (GI)
Fc1ccc2nc(Cl)c(Cn3nnnc3Cc3ccccc3)cc2c1	Active

tested on: SNB-19; test: Growth inhibition of human SNB19 cells at 10^-5 M incubated for 48 hrs by sulforhodamine B assay relative to control; format: functional; settings: not given

Structure (SMILES)	growth inhibition (GI)
Fc1ccc2nc(Cl)c(Cn3nnnc3Cc3ccccc3)cc2c1	Active

tested on: SNB-75; test: Growth inhibition of human SNB75 cells at 10^-5 M incubated for 48 hrs by sulforhodamine B assay relative to control; format: functional; settings: not given

Structure (SMILES)	growth inhibition (GI)
Fc1ccc2nc(Cl)c(Cn3nnnc3Cc3ccccc3)cc2c1	Active

tested on: U-251; test: Growth inhibition of human U251 cells at 10^-5 M incubated for 48 hrs by sulforhodamine B assay relative to control; format: functional; settings: not given

Structure (SMILES)	growth inhibition (GI)
Fc1ccc2nc(Cl)c(Cn3nnnc3Cc3ccccc3)cc2c1	Active

tested on: LOX IMVI; test: Growth inhibition of human LOXIMVI cells at 10^-5 M incubated for 48 hrs by sulforhodamine B assay relative to control; format: functional; settings: not given

Structure (SMILES)	growth inhibition (GI)
Fc1ccc2nc(Cl)c(Cn3nnnc3Cc3ccccc3)cc2c1	Active

tested on: M14; test: Growth inhibition of human M14 cells at 10^-5 M incubated for 48 hrs by sulforhodamine B assay relative to control; format: functional; settings: not given

Structure (SMILES)	growth inhibition (GI)
Fc1ccc2nc(Cl)c(Cn3nnnc3Cc3ccccc3)cc2c1	Active

tested on: SK-MEL-28; test: Growth inhibition of human SK-MEL-28 cells at 10^-5 M incubated for 48 hrs by sulforhodamine B assay relative to control; format: functional; settings: not given

Structure (SMILES)	growth inhibition (GI)
Fc1ccc2nc(Cl)c(Cn3nnnc3Cc3ccccc3)cc2c1	Active

tested on: SK-MEL-5; test: Growth inhibition of human SK-MEL-5 cells at 10^-5 M incubated for 48 hrs by sulforhodamine B assay relative to control; format: functional; settings: not given

Structure (SMILES)	growth inhibition (GI)
Fc1ccc2nc(Cl)c(Cn3nnnc3Cc3ccccc3)cc2c1	Active

tested on: UACC-257; test: Growth inhibition of human UACC257 cells at 10^-5 M incubated for 48 hrs by sulforhodamine B assay relative to control; format: functional; settings: not given

Structure (SMILES)	growth inhibition (GI)
Fc1ccc2nc(Cl)c(Cn3nnnc3Cc3ccccc3)cc2c1	Active

tested on: UACC-62; test: Growth inhibition of human UACC62 cells at 10^-5 M incubated for 48 hrs by sulforhodamine B assay relative to control; format: functional; settings: not given

Structure (SMILES)	growth inhibition (GI)
Fc1ccc2nc(Cl)c(Cn3nnnc3Cc3ccccc3)cc2c1	Active

tested on: OVCAR-3; test: Growth inhibition of human OVCAR3 cells at 10^-5 M incubated for 48 hrs by sulforhodamine B assay relative to control; format: functional; settings: not given

Structure (SMILES)	growth inhibition (GI)
Fc1ccc2nc(Cl)c(Cn3nnnc3Cc3ccccc3)cc2c1	Active

tested on: OVCAR-4; test: Growth inhibition of human OVCAR4 cells at 10^-5 M incubated for 48 hrs by sulforhodamine B assay relative to control; format: functional; settings: not given

Structure (SMILES)	growth inhibition (GI)
Fc1ccc2nc(Cl)c(Cn3nnnc3Cc3ccccc3)cc2c1	Active

tested on: OVCAR-5; test: Growth inhibition of human OVCAR5 cells at 10^-5 M incubated for 48 hrs by sulforhodamine B assay relative to control; format: functional; settings: not given

Structure (SMILES)	growth inhibition (GI)
Fc1ccc2nc(Cl)c(Cn3nnnc3Cc3ccccc3)cc2c1	Active

tested on: OVCAR-8; test: Growth inhibition of human OVCAR8 cells at 10^-5 M incubated for 48 hrs by sulforhodamine B assay relative to control; format: functional; settings: not given

Structure (SMILES)	growth inhibition (GI)
Fc1ccc2nc(Cl)c(Cn3nnnc3Cc3ccccc3)cc2c1	Active

tested on: SK-OV-3; test: Growth inhibition of human SKOV3 cells at 10^-5 M incubated for 48 hrs by sulforhodamine B assay relative to control; format: functional; settings: not given

Structure (SMILES)	growth inhibition (GI)
Fc1ccc2nc(Cl)c(Cn3nnnc3Cc3ccccc3)cc2c1	Active

tested on: 786-0; test: Growth inhibition of human 786-0 cells at 10^-5 M incubated for 48 hrs by sulforhodamine B assay relative to control; format: functional; settings: not given

Structure (SMILES)	growth inhibition (GI)
Fc1ccc2nc(Cl)c(Cn3nnnc3Cc3ccccc3)cc2c1	Active

tested on: ACHN; test: Growth inhibition of human ACHN cells at 10^-5 M incubated for 48 hrs by sulforhodamine B assay relative to control; format: functional; settings: not given

Structure (SMILES)	growth inhibition (GI)
Fc1ccc2nc(Cl)c(Cn3nnnc3Cc3ccccc3)cc2c1	Active

tested on: RXF 393; test: Growth inhibition of human RXF393 cells at 10^-5 M incubated for 48 hrs by sulforhodamine B assay relative to control; format: functional; settings: not given

Structure (SMILES)	growth inhibition (GI)
Fc1ccc2nc(Cl)c(Cn3nnnc3Cc3ccccc3)cc2c1	Active

tested on: SN12C; test: Growth inhibition of human SN12C cells at 10^-5 M incubated for 48 hrs by sulforhodamine B assay relative to control; format: functional; settings: not given

Structure (SMILES)	growth inhibition (GI)
Fc1ccc2nc(Cl)c(Cn3nnnc3Cc3ccccc3)cc2c1	Active

tested on: TK-10; test: Growth inhibition of human TK10 cells at 10^-5 M incubated for 48 hrs by sulforhodamine B assay relative to control; format: functional; settings: not given

Structure (SMILES)	growth inhibition (GI)
Fc1ccc2nc(Cl)c(Cn3nnnc3Cc3ccccc3)cc2c1	Active

tested on: UO-31; test: Growth inhibition of human UO31 cells at 10^-5 M incubated for 48 hrs by sulforhodamine B assay relative to control; format: functional; settings: not given

Structure (SMILES)	growth inhibition (GI)
Fc1ccc2nc(Cl)c(Cn3nnnc3Cc3ccccc3)cc2c1	Active

tested on: MCF7; test: Growth inhibition of human MCF7 cells at 10^-5 M incubated for 48 hrs by sulforhodamine B assay relative to control; format: functional; settings: not given

Structure (SMILES)	growth inhibition (GI)
Fc1ccc2nc(Cl)c(Cn3nnnc3Cc3ccccc3)cc2c1	Active

tested on: MDA-MB-231; test: Growth inhibition of human MDA-MB-231/ATCC cells at 10^-5 M incubated for 48 hrs by sulforhodamine B assay relative to control; format: functional; settings: not given

Structure (SMILES)	growth inhibition (GI)
Fc1ccc2nc(Cl)c(Cn3nnnc3Cc3ccccc3)cc2c1	Active

tested on: Hs-578T; test: Growth inhibition of human Hs 578T cells at 10^-5 M incubated for 48 hrs by sulforhodamine B assay relative to control; format: functional; settings: not given

Structure (SMILES)	growth inhibition (GI)
Fc1ccc2nc(Cl)c(Cn3nnnc3Cc3ccccc3)cc2c1	Active

tested on: BT-549; test: Growth inhibition of human BT549 cells at 10^-5 M incubated for 48 hrs by sulforhodamine B assay relative to control; format: functional; settings: not given

Structure (SMILES)	growth inhibition (GI)
Fc1ccc2nc(Cl)c(Cn3nnnc3Cc3ccccc3)cc2c1	Active

tested on: T47D; test: Growth inhibition of human T47D cells at 10^-5 M incubated for 48 hrs by sulforhodamine B assay relative to control; format: functional; settings: not given

Structure (SMILES)	growth inhibition (GI)
Fc1ccc2nc(Cl)c(Cn3nnnc3Cc3ccccc3)cc2c1	Active

tested on: Candida albicans; test: Antifungal activity against Candida albicans after 24 hrs by serial dilution method; format: functional; settings: not given

Structure (SMILES)	MIC [µg/mL]
Fc1ccc2nc(Cl)c(Cn3nnnc3Cc3ccccc3)cc2c1	25 (≈ 70.7 µM)

tested on: Aspergillus fumigatus; test: Antifungal activity against Aspergillus fumigatus at 100 ug/ml by disc diffusion method; format: functional; settings: read-out: IZ

Structure (SMILES)	zone of inhibition at 100 µg/mL [mm]
Fc1ccc2nc(Cl)c(Cn3nnnc3Cc3ccccc3)cc2c1	10

tested on: Aspergillus fumigatus; test: Antifungal activity against Aspergillus fumigatus after 24 hrs by serial dilution method; format: functional; settings: not given

Structure (SMILES)	MIC [µg/mL]
Fc1ccc2nc(Cl)c(Cn3nnnc3Cc3ccccc3)cc2c1	10 (≈ 28.3 µM)

— ChEMBL document CHEMBL4004849, “Tetrazolylmethyl quinolines: Design, docking studies, synthesis, anticancer and antifungal analyses” (2017)
